Source: patent publication US9180134B2, “Mitochondrial ribosomal proteins as aging regulators” (ECOLE POLYTECHNIQUE FEDERALE DE LAUSANNE (EPEL), priority 2011, dated 2015)

Columns and labels:
[1] = tested on: mitochondrial unfolded protein response (UPR^mt); experiment: UPR^mt GFP reporter worms (hsp-6::GFP); type: in vivo, C. elegans; settings: Day 1 adults
Experimental: Treatments with antibiotics (carbenicillin, doxycycline, and chloramphenicol (all Sigma)) were performed with heat-killed bacteria (Wood et al., 2004, Nature 430, 686). Carbenicillin, doxycycline, and chloramphenicol were added at the indicated concentrations. Animals were exposed to antibiotics from eggs to L4 larval stage and then shifted on plates seeded with live OP50 bacteria. GFP expression and quantification were carried out according to the protocol previously described (Durieux et al, 2011, Cell 144, 79). Briefly, GFP was monitored in Day 1 adults. Fluorimetric assays were performed using a Victor X4 multilabel plate reader (Perkin-Elmer Life Science). Eighty roller worms were picked at random (20 worms per well of a black-walled 96-well plate) and each well was read four times and averaged. Each experiment was repeated at least twice. For picture acquisition, animals were mounted on 2% agarose pads in a droplet of 10 mM tetramisole (Sigma) and examined using a Zeiss Axioplan-2 microscope (Carl Zeiss MicroImaging, Thornwood, N.Y., USA) equipped for both DIC and epifluorescence. Images were obtained using a Coolsnap ES^2 camera.

C. elegans [2] = experiment: Worm lifespan analysis; type: in vivo; settings: antibiotic from eggs to L4 larval stage, heat-killed bacteria; 20° C
Experimental: Lifespan tests were performed as described (Mouchiroud et al., 2011, Aging Cell 10, 39). Briefly, 60-100 animals were used per conditions and scored every other day. All lifespan experiments were performed at 20° C. […] Treatments with antibiotics (carbenicillin, doxycycline, and chloramphenicol (all Sigma)) were performed with heat-killed bacteria (Wood et al., 2004, Nature 430, 686). Carbenicillin, doxycycline, and chloramphenicol were added at the indicated concentrations. Animals were exposed to antibiotics from eggs to L4 larval stage and then shifted on plates seeded with live OP50 bacteria.

C. elegans [3] = experiment: Worm respiration assay (Seahorse XF24); type: in vivo; settings: worms treated with antibiotic
Experimental: Treatments with antibiotics (carbenicillin, doxycycline, and chloramphenicol (all Sigma)) were performed with heat-killed bacteria (Wood et al., 2004, Nature 430, 686). Carbenicillin, doxycycline, and chloramphenicol were added at the indicated concentrations. Animals were exposed to antibiotics from eggs to L4 larval stage and then shifted on plates seeded with live OP50 bacteria. Oxygen consumption was measured using the Seahorse XF24 equipment (Seahorse Bioscience Inc., North Billerica, Mass.). Typically, 200 animals per conditions were recovered from NGM plates with M9 medium, washed three times in 2 mL M9 to eliminate residual bacteria, and resuspended in 500 μL M9 medium. Worms were transferred in 24-well standard Seahorse plates (#100777-004) (50 worms per well) and oxygen consumption was measured 6 times. Respiration rates were normalized to the number of worms in each individual well.

[4] = tested on: Hepa1-6 mouse liver cells; experiment: Oxygen consumption in Hepa1-6 cells (Seahorse XF24); type: cell-based; settings: 48 h incubation, normalized for protein content
Experimental: (§1) Hepa1-6 mouse liver cells were maintained in DMEM medium containing 4.5 g/l glucose and 10% fetal calf serum. Hepa1-6 cells were incubated for 48 h with doxycycline or chloramphenicol (both Sigma) in medium containing 1 g/l glucose, with 1% (v/v) oleate-BSA (Sigma) supplementation, and without any other antibiotics. Oxygen consumption in Hepa1-6 cells was measured using the Seahorse XF24 equipment (Watanabe et al., 2006, Nature 439, 484), and normalized for protein content. ATP content was measured using CellTiter-Glo (Promega), according to the manufacturer's protocol.

C57BL/6N mice = experiment: Mouse indirect calorimetry (CLAMS); type: in vivo; settings: C57BL/6 mice, chow containing doxycycline for 10 days, data not shown
Experimental: Wild type C57BL/6N mice were treated for 10 days with 50 mpkd doxycycline (Sigma) in food admix. Oxygen consumption (VO2), respiratory exchange ratios (RER), and activity were monitored by indirect calorimetry using the comprehensive laboratory animal monitoring system (CLAMS) (Columbus Instruments, Columbus, Ohio, USA).

[5] = tested on: Hepa1-6 mouse liver cells; experiment: ATP content (CellTiter-Glo) in Hepa1-6 cells; type: cell-based; settings: data not shown
Experimental: as §1

Row | activity (C57BL/6N mice) | food intake (C57BL/6N mice) | SMILES | UPR^mt induction in C. elegans [1] | lifespan of C. elegans (C. elegans [2]) | oxygen consumption (respiration) of C. elegans (C. elegans [3]) | respiration (oxygen consumption) in Hepa1-6 cells [4] | body weight (C57BL/6N mice) | cell viability as measured by ATP levels [5]
1 |  |  | O=C(N[C@H](CO)[C@H](O)c1ccc([N+](=O)[O-])cc1)C(Cl)Cl [chloramphenicol] | induced UPR^mt | extended lifespan | decreased respiration | decreased respiration |  | 
2 | without changes | without changes | C[C@H]1c2cccc(O)c2C(=O)C2=C(O)[C@]3(O)C(=O)C(C(N)=O)=C(O)[C@@H](N(C)C)[C@@H]3[C@@H](O)[C@@H]21 [doxycycline] |  |  |  |  | without changes | without affecting cell viability
